According to US10378034B2, “Use of a N-acetylneuraminate lyase derived from the bacterium Aliivibrio salmonicida in the production of neuraminic acid and derivatives thereof” (Universitetet i Tromsø-Norges Arktiske Universitet, priority 2014, dated 2019):

Assays:
AsNAL [1] = experiment: Production of Neu5,7Ac2/Neu5,8Ac2/Neu5,9Ac2 and legionaminic acid by AsNAL (DMB-HPLC-MS); type: biochemical, Aliivibrio salmonicida; conditions: for RT 3.29 (Area), legionaminic acid / 468.1613@3.56 Area (Neu5,7Ac2) / 468.1613@4.05 Area (Neu5,8Ac2) / 468.1613@4.4 Area (Neu5,9Ac2): 15 mM substrate, 15 mM pyruvate, 28 μg AsNAL, HEPES pH 8.0
Experimental: 15 mM of 4-O-acetyl-2-N-acetylmannosamine (4-OAc-ManNAc) or 2,4-diacetamino-2,4,6-trideoxymannose, 15 mM of pyruvate, 28 μg of enzyme (AsNAL), 124 mM HEPES buffer, pH 8.0 and dH2O were mixed in a tube to a total volume of 200 μl. Aliquots were sampled after 1.0, 1.5 and 4.0 h for production of di-acetylated Neus. For production of Legionaminic acid aliquots were sampled after 1.0 and 3.0 h. Reactions were terminated by addition of 2 μl concentrated H2SO4. Samples were passed over Amicon Ultra spin-columns with a 10000 molecular weight cut-off (Millipore) to remove high molecular weight compounds. The low molecular weight fractions were then used in DMB-HPLC coupled to mass spectrometric analyses. Derivatization of samples with DMB were performed according to protocol given by the supplier (Sialic Acid Fluorescence Labeling Kit, Takara Inc.). Reactions were carried out for 2.5 hours at 50° C. in the dark. A reference panel with a mixture of the Sias; Neu5Gc, Neu5Ac, Neu5,7Ac2, Neu5Gc9Ac, Neu5,9Ac2 and Neu5, (7/8)9Ac3 (ProZyme Inc.) were also subjected to derivatization with DMB. DMB-labeled sialic acids were separated by HPLC using Accela HPLC (Thermo Scientific) on a LTQ Orbitrap XL Fourier Transform Mass Spectrometer (FTMS) with an Electrospray ion source (Thermo Scientific) using a positive ion profile mode fullscan (+pESI). The column used was a Hypersil Gold 50×2.1 mm, 1.9 μm reversed-phase C18 column (Thermo scientific).). Elution was achieved using water with 0.1% formic acid (A) and acetonitrile with 0.1% formic acid (B) at a flow rate of 400 μl/min.
The analytical conditions were set to 300° C. for capillary temperature, 4.5 kV spray voltage, m/z 350-550 scan range and 35% collision energy. The MS/MS was targeted on the masses m/z 426.15, m/z 468.16 and m/z 451.18 using Ion trap MS (ITMS)+cESI with full MS2 in scan range m/z 125-480, corresponding to the DMB derivates DMB-Neu5Ac, DMB-di-acetylated Neu and DMB-Leg.

[2] = test system: CC(=O)N[C@H]1[C@H]([C@H](O)[C@H](O)CO)OC(O)(C(=O)O)C[C@@H]1O; experiment: LDH-coupled continuous assay, enzyme kinetics for the cleavage reaction of Neu5Ac (AsNAL); type: biochemical, Aliivibrio salmonicida; conditions: other: cleavage reaction, Neu5Ac 1-90 mM, 50 mM Tris-HCl pH 8.5, 37° C.
Experimental: (§1) Further, the enzyme kinetics for the cleavage reactions were studied using a lactate dehydrogenase (LDH)-coupled continuous assay (Comb and Roseman, 1960; Wang and Lee, 2006). The incubation mixtures contained variable amounts (1, 5, 15, 30, 45, 60, 75 and 90 mM) of Neu5Ac, 50 mM Tris-HCl, pH 8.5, 0.15 mM NADH (Sigma), 4U LDH (Sigma) and 0.315 μg of NAL in final volumes of 200 μl. Components, except the enzyme, were mixed and incubated at 37° C. for 5 min before the reactions were started by adding the specific enzyme. The measurements were done in triplicates. The decrease in absorbance at 340 nm corresponding to the oxidation of NADH by LDH in presence of released pyruvate was measured spectrophotometrically using a Spectramax M2e Microplate reader. Initial velocities were calculated using the SoftMax Pro software (Molecular Devices) and subsequently fitted to the Michaelis-Menten equation using the program GraphPad Prism 5 (GraphPad Software Inc.). The kcat values were calculated using the formula Vmax/[Enzyme]. The relationship between absorbance and substrate concentration was calculated from a standard-curve obtained by measuring the maximum absorbance from various substrate concentrations. The relationship is given by the formula: y=0.0031x+0.0052, where x is the pyruvate concentration. By using this formula, values of Vmax were converted from mOD/min to μM/min. Enzyme concentrations were converted from mg/ml to molar using the calculated molecular mass of 32257.9 g/mol (monomeric protein).
(§2) The AsNAL Michaelis constant (KM) is somewhat higher than the KM obtained for EcNAL. However, the turnover number, kcat, is strikingly higher than for EcNAL.

AsNAL [3] = experiment: Cleavage of Neu5Ac, Neu5Gc and KDN by AsNAL (TBA assay); type: biochemical, Aliivibrio salmonicida; conditions: 5 mM substrate, 6.6 μg AsNAL, HEPES pH 8.0, 1 h room temperature
Experimental: The cleavage reaction of AsNAL contained 6.6 μg of AsNAL, 5 mM Neu5Gc or KDN and 124 mM HEPES buffer pH 8.0. For blank (H2O) and positive control the same components of the reactions were used, but the amount of enzyme was replaced by assay buffer. All reactions were filled up to a total volume of 50 μL with dH2O. The assay was performed in triplicate. After 1 h incubation at room temperature, the enzyme reaction was stopped by adding 2 μL concentrated H2SO4. The thiobarbituric acid (TBA) assay procedure was followed to determine the amount cleaved.

[4] = molecular target: Aliivibrio salmonicida LFI1238 N-acetylneuraminate lyase (AsNAL), wild type, SEQ ID NO: 1 (Aliivibrio salmonicida, UniProt B6EI04); experiment: LDH-coupled continuous assay, enzyme kinetics for the cleavage reaction of Neu5Ac (AsNAL); type: biochemical; conditions: Neu5Ac 1-90 mM, 50 mM Tris-HCl pH 8.5, 37° C.
Experimental: as §1, §2

[5] = molecular target: T1, E. coli N-acetylneuraminate lyase (EcNAL), commercially available (Sigma) (Escherichia coli, UniProt P0A6L4); experiment: LDH-coupled continuous assay, enzyme kinetics for the cleavage reaction of Neu5Ac (EcNAL); type: biochemical; conditions: Neu5Ac 1-90 mM, 50 mM Tris-HCl pH 8.5, 37° C.
T1 sequence (P0A6L4 1-297): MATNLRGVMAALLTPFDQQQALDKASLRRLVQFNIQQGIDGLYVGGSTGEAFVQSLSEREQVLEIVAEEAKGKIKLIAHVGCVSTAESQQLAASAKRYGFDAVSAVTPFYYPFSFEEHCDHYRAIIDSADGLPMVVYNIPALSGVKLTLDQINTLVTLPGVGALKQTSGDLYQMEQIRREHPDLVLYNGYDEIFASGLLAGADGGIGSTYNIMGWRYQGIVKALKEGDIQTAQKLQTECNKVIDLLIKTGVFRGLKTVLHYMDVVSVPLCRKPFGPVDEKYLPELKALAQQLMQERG
Experimental: as §1, with “The relationship is given by the formula: y=0.0031x+0.0052, where x is the pyruvate concentration. By using this formula, values of Vmax were converted from mOD/min to μM/min.” left out, “protein). […]” for “protein).”

[6] = Integrated reaction: Neu5Ac production from GlcNAc and pyruvate at alkaline pH (TBA assay); type: biochemical
Experimental: For ManNAc reactions, the buffer used was HEPES, pH 8.0. […] Experiments were performed in triplicate. For ManNAc experiments, aliquots were sampled after 0.5, 1.0, 1.5, 2.5 and 4.0 h. For GlcNAc experiments, aliquots were sampled after 12, 24, 36, 48 and 72 h. Reactions were terminated by addition of 2 μl concentrated H2SO4. The time needed for N-acetylneuraminic acid (Neu5Ac) production to get started under these conditions was known to take longer time based on initial test experiments. The thiobarbituric acid (TBA) assay procedure was followed to determine the amount of Neu5Ac produced. The activity was corrected for a blank value. The blank contained all the reaction components except for enzyme.
Initially, also glycine buffer was tested at pH 10.5 and pH 11.0 for the reactions with GlcNAc. GlcNAc will chemically epimerize to ManNAc at pH values above 9.0, which the enzyme will use as substrate for the production of Neu5Ac. The epimerization is pH dependent and will increase with increasing pH. Production of Neu5Ac was higher in CAPS buffer compared to glycine buffer, so this was chosen for further experiments.

CC(=O)N[C@@H]([C@H](O)[C@@H](C=O)NC(C)=O)[C@@H](C)O [2,4-diacetamino-2,4,6-trideoxymannose]
RT 3.29 (Area), legionaminic acid (AsNAL [1]; 1 h): 902252
RT 3.29 (Area), legionaminic acid (AsNAL [1]; 3 h): 1663378

CC(=O)N[C@@H]1C(O)O[C@H](CO)[C@@H](OC(C)=O)[C@@H]1O (stereo partly shown) [4OAc-ManNAc, 4-O-acetyl-2-N-acetylmannosamine]
468.1613@3.56 Area (Neu5,7Ac2) (AsNAL [1]; 1 hour): 3258981
468.1613@4.05 Area (Neu5,8Ac2) (AsNAL [1]; 1 hour): 4611697
468.1613@4.4 Area (Neu5,9Ac2) (AsNAL [1]; 1 hour): 20834893
468.1613@3.56 Area (Neu5,7Ac2) (AsNAL [1]; 1.5 hours): 4048804
468.1613@4.05 Area (Neu5,8Ac2) (AsNAL [1]; 1.5 hours): 5467510
468.1613@4.4 Area (Neu5,9Ac2) (AsNAL [1]; 1.5 hours): 23706892
468.1613@3.56 Area (Neu5,7Ac2) (AsNAL [1]; 4 hours): 4484920
468.1613@4.05 Area (Neu5,8Ac2) (AsNAL [1]; 4 hours): 6019425
468.1613@4.4 Area (Neu5,9Ac2) (AsNAL [1]; 4 hours): 26500427
production of Neu5,9Ac2, Neu5,7Ac2 and Neu5,8Ac2 relative to ManNAc as a substrate (AsNAL [1]; same conditions, pH 8.0, asNAL): 30-40%

Aliivibrio salmonicida LFI1238 N-acetylneuraminate lyase (AsNAL), wild type, SEQ ID NO: 1 (Aliivibrio salmonicida LFI1238)
Km [2]: 53.88 ± 6.55 mM
kcat [2]: 19.1 s⁻¹
kcat/Km [2]: 354 M⁻¹ s⁻¹

O=C(O)C(=O)C[C@H](O)[C@@H](O)[C@@H](O)[C@H](O)[C@H](O)CO [KDN, 2-keto-3-deoxy-D-glycero-D-galacto-nononic acid]
% cleaved (AsNAL [3]): 50.0%
Cleaved (OD) (AsNAL [3]): 2.658 ± 0.130
OD sample-blank (measures uncleaved substrate) (AsNAL [3]): 2.662 ± 0.130

CC(=O)N[C@H]1[C@H]([C@H](O)[C@H](O)CO)OC(O)(C(=O)O)C[C@@H]1O (stereo partly shown) [Neu5Ac, N-acetylneuraminic acid]
% cleaved (AsNAL [3]): 82.6%
Cleaved (OD) (AsNAL [3]): 4.984 ± 0.016
OD sample-blank (measures uncleaved substrate) (AsNAL [3]): 1.048 ± 0.016
Vmax [4]: 315.5 ± 18.5
Vmax [5]: 208.9 ± 16.7

O=C(CO)N[C@H]1[C@H]([C@H](O)[C@H](O)CO)OC(O)(C(=O)O)C[C@@H]1O (stereo partly shown) [Neu5Gc, N-glycolylneuraminic acid]
% cleaved (AsNAL [3]): 73.9%
Cleaved (OD) (AsNAL [3]): 4.018 ± 0.076
OD sample-blank (measures uncleaved substrate) (AsNAL [3]): 1.422 ± 0.076

B1: EcNAL: commercially available N-acetylneuraminate lyase from E. coli (Sigma) (protein, UniProt P0A6L4 2-297, looked up)
N-acetylneuraminate lyase: ATNLRGVMAALLTPFDQQQALDKASLRRLVQFNIQQGIDGLYVGGSTGEAFVQSLSEREQVLEIVAEEAKGKIKLIAHVGCVSTAESQQLAASAKRYGFDAVSAVTPFYYPFSFEEHCDHYRAIIDSADGLPMVVYNIPALSGVKLTLDQINTLVTLPGVGALKQTSGDLYQMEQIRREHPDLVLYNGYDEIFASGLLAGADGGIGSTYNIMGWRYQGIVKALKEGDIQTAQKLQTECNKVIDLLIKTGVFRGLKTVLHYMDVVSVPLCRKPFGPVDEKYLPELKALAQQLMQERG
production of Neu5Ac (in words) ([6]; pyruvate and GlcNAc 4:1, CAPS pH 11.0): low
production of Neu5Ac (in words) ([6]; pyruvate and GlcNAc, CAPS pH 11.5): no production was observed
